# According to publication PMC9916951, “Enzyme Inhibition-Based Assay to Estimate the Contribution of Formulants to the Effect of Commercial Pesticide Formulations” (International Journal of Molecular Sciences, 2023):
# pIC50: −log10 of the molar value. Where two headings read alike, the source gives them in different places.
# Key:
# trypsin = target: T1, trypsin (Sus scrofa, UniProt P00761); assay: Single-enzyme assay system, trypsin activity (absorbance 253 nm); type: biochemical, porcine
# T1 construct: purchased Sigma-Aldrich; host or cells: porcine pancreas
# T1 sequence (P00761 9-231): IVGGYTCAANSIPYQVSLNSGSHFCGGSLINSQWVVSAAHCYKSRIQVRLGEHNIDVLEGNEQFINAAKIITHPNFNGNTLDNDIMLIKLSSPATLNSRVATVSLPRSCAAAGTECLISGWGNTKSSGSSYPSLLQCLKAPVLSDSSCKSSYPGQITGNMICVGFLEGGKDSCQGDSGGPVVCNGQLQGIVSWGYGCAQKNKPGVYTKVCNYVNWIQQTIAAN
# Procedure: (§1) The activities of enzyme assay systems were determined by measuring the absorbance of reaction mixture solutions or bioluminescence intensity in the solutions of the analyzed pesticide active ingredients or in the control solution.
# Trypsin activity was analyzed in the reaction mixture containing 490 μL of the 0.1 M Clark and Lubs buffer pH 7.6, 11 mU of trypsin, 40 μL of 1 mM hydrochloric acid, and 460 μL of the 0.5 mM BAEE solution. The absorbances of the solutions were measured at 253 nm.
# (§2) The effects of the active ingredients of pesticide and the solvents on the activity of the enzymes in the single-enzyme assay systems were determined as the relative activity according to the formula A = (At/Ac)∙100%, where Ac and At are the enzyme activity in the control and in the analyte solution, respectively.
# (§3) The parameter IC50 was used to estimate the inhibitory effect of the active ingredients of pesticides on the enzyme activity and the bioluminescence intensity of a multi-enzyme assay system. It is the concentration of the active ingredient decreasing the enzyme activity by 50%.
# [1] = target: T2, lactate dehydrogenase (LDH) (Oryctolagus cuniculus, UniProt P13491); assay: Single-enzyme assay system, LDH activity (absorbance 340 nm); type: biochemical, rabbit; conditions: for IC50 / IC50, LDH: active ingredient alone (AIa); for IC50: read-out: IC50, LDH (converted)
# T2 construct: purchased Sigma-Aldrich; host or cells: rabbit muscle
# Procedure: as §1
# (§4) The activities of single-enzyme assay systems with Red, ADH, and LDH were determined by changes in the absorbance at 340 nm.
# The reaction mixture for the LDH-catalyzed reaction comprised 850 μL of the 0.05 M potassium-phosphate buffer pH 8.0, 9 U of LDH, 40 μL of the 3.25 mM NADH solution, 30 μL of the 69 mM pyruvate solution, and 50 μL of the analyte solution or the solvent solution (control).
# as §2, §3
# [2] = target: T3, alcohol dehydrogenase (ADH) (Saccharomyces cerevisiae, UniProt P00330); assay: Single-enzyme assay system, ADH activity (absorbance 340 nm); type: biochemical, baker's yeast; conditions: for IC50: read-out: IC50, ADH (converted)
# T3 construct: purchased Sigma-Aldrich; host or cells: baker’s yeast
# T3 sequence (P00330 whole entry): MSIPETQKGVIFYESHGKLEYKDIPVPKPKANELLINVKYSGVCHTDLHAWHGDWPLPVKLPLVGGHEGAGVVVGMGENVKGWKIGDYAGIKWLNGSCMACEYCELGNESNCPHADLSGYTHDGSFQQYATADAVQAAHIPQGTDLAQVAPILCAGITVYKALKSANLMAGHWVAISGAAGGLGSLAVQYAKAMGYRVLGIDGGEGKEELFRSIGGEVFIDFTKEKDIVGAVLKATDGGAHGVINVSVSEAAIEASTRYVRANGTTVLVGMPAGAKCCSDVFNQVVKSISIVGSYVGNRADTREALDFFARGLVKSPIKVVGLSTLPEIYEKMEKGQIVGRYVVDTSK
# Procedure: as §1, §4
# The activity of the ADH was estimated by using the following reaction mixture: 1500 μL of the potassium-phosphate buffer 0.05 M pH 7.85, 750 mU of ADH, 40 μL of the 2.4 mM NAD^+ solution, and 25 μL of 95% ethanol. Distilled water and acetonitrile were used as control solutions.
# as §2, §3
# [3] = target: NAD(P)H:FMN-oxidoreductase + luciferase (Red + Luc); assay: Coupled enzyme assay system Red + Luc, luminescence intensity; type: biochemical, Vibrio fischeri; Photobacterium leiognathi; conditions: active ingredient alone (AIa)
# Procedure: (§5) The activities of the multi-enzyme assay systems were determined from the values of the luminescence intensity in the presence of the control or the analyte solutions.
# To analyze the effect of pesticides on the luminescence intensity of the Red + Luc coupled enzyme assay system, we used the following reaction mixture: 290 μL of the 0.05 M potassium-phosphate buffer pH 6.8; 5 μL of the Red + Luc mixture, preliminarily diluted in 5 mL of the buffer solution; 50 μL of the 0.0025% tetradecanal solution; 50 μL of the 0.5 mM FMN solution; 100 μL of the 0.4 mM NADH solution; and 10–200 μL of the analyte solution or the solvent solution used as a control. Ratio of Red to Luc in the reaction mixture was 1.2:1; and their concentrations were about 15 and 13 nM, respectively.
# (§6) The effect of the pesticide active ingredients and solvents on the multi-enzyme reactions was estimated from the residual luminescence intensity calculated according to the formula I = (It/Ic)∙100%, where Ic and It are the average values of luminescence intensity in the presence of the control or analyte solution, respectively.
# as §3
# [4] = target: alcohol dehydrogenase + NAD(P)H:FMN-oxidoreductase + luciferase (ADH + Red + Luc); assay: Three-enzyme assay system ADH + Red + Luc, luminescence intensity; type: biochemical, baker's yeast; Vibrio fischeri; Photobacterium leiognathi; conditions: active ingredient alone (AIa)
# Procedure: as §5
# An analysis of the activity of the ADH + Red + Luc three-enzyme assay system was performed using the reaction mixture containing 350 μL of the 0.05 M potassium-phosphate buffer pH 6.9; 5 μL of 0.5 mg/mL ADH; 5 μL of the Red + Luc solution, preliminarily diluted in 5 mL of the buffer solution; 50 μL of the 0.0025% tetradecanal solution; 100 μL of the 0.4 mM NAD^+ solution; 10 μL of the 0.5 mM FMN solution; 5 μL of 95% ethanol; and 10–100 μL of the solvent (control) or the analyte solution. The proportions of ADH, Red, and Luc in the reaction mixture were 10:1.2:1, and their concentrations were about 120, 14, and 12 nM, respectively.
# as §6, §3
# [5] = target: lactate dehydrogenase + NAD(P)H:FMN-oxidoreductase + luciferase (LDH + Red + Luc); assay: Three-enzyme assay system LDH + Red + Luc, luminescence intensity; type: biochemical, rabbit; Vibrio fischeri; Photobacterium leiognathi; conditions: active ingredient alone (AIa)
# Procedure: as §5
# The reaction mixture for analyzing the luminescence intensity of the LDH + Red + Luc three-enzyme assay system consisted of 5 μL of 0.5 mg/mL LDH; 300 μL of the 0.05 M potassium-phosphate buffer pH 7.1; 10 μL of the 15 mM lactate solution; 50 μL of the 0.0025% tetradecanal solution; 10 μL of the Red + Luc solution, preliminarily diluted in 5 mL of the buffer solution; 10 μL of the 0.5 mM FMN solution; 100 μL of the 0.5 mM NAD^+ solution; and 10–50 μL of the analyte solution or the solvent solution (control). The proportions of LDH, Red, and Luc in the reaction mixture were 1.4:1.2:1, and their concentrations were about 36, 31, and 26 nM, respectively.
# as §6, §3
# [6] = target: T4, butyrylcholinesterase (BChE) (Equus caballus, UniProt P81908); assay: Single-enzyme assay system, BChE activity (Ellman's method, 412 nm); type: biochemical, equine; conditions: for IC50: active ingredient alone (AIa), read-out: IC50, BChE (converted)
# T4 construct: purchased Sigma-Aldrich; host or cells: equine serum
# T4 sequence (P81908 whole entry): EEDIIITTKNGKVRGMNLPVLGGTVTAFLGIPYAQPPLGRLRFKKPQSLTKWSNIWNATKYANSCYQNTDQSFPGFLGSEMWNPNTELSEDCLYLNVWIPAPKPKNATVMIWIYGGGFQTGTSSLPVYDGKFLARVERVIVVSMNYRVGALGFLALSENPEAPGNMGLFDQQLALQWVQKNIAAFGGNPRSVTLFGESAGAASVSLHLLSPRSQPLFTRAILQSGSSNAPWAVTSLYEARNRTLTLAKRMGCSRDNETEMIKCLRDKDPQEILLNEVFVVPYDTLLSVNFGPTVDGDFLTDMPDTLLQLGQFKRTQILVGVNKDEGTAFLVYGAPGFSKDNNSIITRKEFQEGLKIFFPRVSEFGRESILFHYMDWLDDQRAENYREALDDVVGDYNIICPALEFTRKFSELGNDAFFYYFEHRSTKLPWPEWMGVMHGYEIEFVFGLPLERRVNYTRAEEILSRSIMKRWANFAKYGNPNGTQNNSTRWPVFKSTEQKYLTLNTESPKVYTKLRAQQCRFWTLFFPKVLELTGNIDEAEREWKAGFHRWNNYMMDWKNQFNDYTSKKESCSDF
# Procedure: as §1
# To analyze BChE activity Ellman’s method was used. The absorbance of the solutions was measured at the 412 nm. We used the following reaction mixture: 800–850 μL of the 0.05 M potassium-phosphate buffer pH 8.0, 70 mU of BChE, 60 μL of 0.2 mM 5,5′-dithiobis (2-nitrobenzoic acid), 60 μL of 0.2 mM S-BCh-I, and 50–100 μL of the analyte solution or the solvent solution used as control.
# as §2, §3
# [7] = maximum residual levels of the active ingredient, Russian Federation; cited from earlier work
# [8] = target: alkaline phosphatase (ALP) (Bos taurus, UniProt P19111); assay: Single-enzyme assay system, ALP activity (absorbance 405 nm); type: biochemical, bovine; conditions: 13.5 mg/L of fenvalerate (AIa)
# alkaline phosphatase (ALP), sequence (P19111 20-506): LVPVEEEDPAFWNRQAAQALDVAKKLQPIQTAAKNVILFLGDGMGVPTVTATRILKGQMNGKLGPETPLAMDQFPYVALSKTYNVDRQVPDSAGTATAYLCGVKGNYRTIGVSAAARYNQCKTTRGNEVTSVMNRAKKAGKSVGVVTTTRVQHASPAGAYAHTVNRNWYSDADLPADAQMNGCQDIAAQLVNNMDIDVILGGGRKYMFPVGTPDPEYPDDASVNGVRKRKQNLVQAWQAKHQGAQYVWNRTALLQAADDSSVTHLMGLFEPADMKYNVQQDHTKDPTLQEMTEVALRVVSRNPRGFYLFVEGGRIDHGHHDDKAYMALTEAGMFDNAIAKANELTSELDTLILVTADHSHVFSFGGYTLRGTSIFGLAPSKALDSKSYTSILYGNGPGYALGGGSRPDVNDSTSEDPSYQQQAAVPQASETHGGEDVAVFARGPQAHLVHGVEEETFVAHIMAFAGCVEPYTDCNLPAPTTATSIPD
# Procedure: as §1
# The activity of the ALP was analyzed in the following reaction mixture: 990 μL of the glycine NaOH buffer pH 9.6 containing 0.5 mM MgCl2, 1.2 mU of the ALP solution, 8 μL of the 33 mM […] solution, and 30–50 μL of the analyte solution. The absorbance of the solutions was measured at 405 nm.
# as §2, §3
# [9] = target: NAD(P)H:FMN-oxidoreductase (Red); assay: Single-enzyme assay system, Red activity (absorbance 340 nm); type: biochemical, Vibrio fischeri; conditions: active ingredient alone (AIa)
# Procedure: as §1, §4
# The reaction mixture for the Red-catalyzed reaction consisted of 750 μL of the 0.05 M potassium-phosphate buffer pH 7.25, 6 mU of Red, 100 μL of the 0.4 mM NADH solution, 10 μL of the 0.5 mM FMN solution, and 5–100 μL of the analyte solution or the solvent (control).
# as §2, §3
# [10] = tested on: Photobacterium phosphoreum; assay: Bioluminescence of luminous bacterium P. phosphoreum; type: cell-based
# Procedure: Bacterium P. phosphoreum 1889 was provided by the museum at the IBP SB RAS [68]. P. phosphoreum cells were grown for 24 h on solid medium for marine bacteria. The cells were suspended in the sodium-phosphate buffer pH 7.4.
# The effects of active ingredients of pesticides on the luminous bacterium were determined by changes in the bacterial luminescence intensity in the presence of the analyte relative to the control value. The solvent was used as a control solution. The reaction mixture for analyzing the luminescence intensity of luminous bacterium in the presence of control solution contained 450 μL of bacterial suspension and 5 μL of ethanol or 50 μL of distilled water, used as solvents for active ingredients of pesticides. A cuvette with the reaction mixture was placed into a luminometer, and luminescence intensity (Ic) was measured after 1 min. Then, another aliquot of bacterial suspension and 5 or 50 μL of a pesticide active ingredient solution were placed into a luminometer cuvette, and luminescence intensity (It) was measured after 1 min. The residual luminescence intensity was determined according to the formula I = (It/Ic) ∙ 100%.
# The parameter EC50 was used to estimate the inhibitory effect of the active ingredients of pesticides on the bioluminescence of P. phosphoreum. […]
SMILES,IC50 [1],IC50 ([2]; active ingredient alone (AIa)),"IC50, Red + Luc [3]","IC50, ADH + Red + Luc [4]","IC50, LDH + Red + Luc [5]",IC50 [6],MRL RUS [7],further results
"CC1(C)C(C=C(Cl)Cl)C1C(=O)OC(C#N)c1cccc(Oc2ccccc2)c1 (stereo not shown) [Cypermethrin, cypermethrin]",60.1 µM,0.48 µM,1.8 µg/mL,0.2 µg/mL,6.5 µg/mL,–,–,"IC50, Trypsin (trypsin; active ingredient alone (AIa)): No inhibitory effects"
"CC1(C)[C@H](C(=O)O[C@H](C#N)c2cccc(Oc3ccccc3)c2)[C@@H]1C=C(Br)Br [Deltamethrin, deltamethrin]",59.4 µM,20.6 µM,3.7 µg/mL,1.0 µg/mL,7.7 µg/mL,198 µM,0.01 to 0.3 mg/kg,–
"CCOP(=S)(OCC)Oc1cc(C)nc(C(C)C)n1 [Diazinon, diazinon]",–,–,2234 µg/mL,11 µg/mL,3351 µg/mL,–,0.1 to 0.5 mg/kg,"IC50, LDH [1]: No inhibitory effects; pIC50 [2]: 4.32"
"CC(C)C(C(=O)OC(C#N)c1cccc(Oc2ccccc2)c1)c1ccc(Cl)cc1 (stereo not shown) [Fenvalerate, fenvalerate]",7.14 µM,–,4.8 µg/mL,1.6 µg/mL,31.7 µg/mL,286 µM,–,"increase in trypsin activity (trypsin; 10 mg/L of fenvalerate (AIa)): 28%; increase in ALP activity [8]: 26%; IC50, ADH ([2]; active ingredient alone (AIa)): No inhibitory effects"
"O=C(O)CNCP(=O)(O)O [Glyphosate, glyphosate]",–,30400 µM,288 µg/mL,3200 µg/mL,935 µg/mL,207 µM,–,"IC50 (trypsin; active ingredient alone (AIa), read-out: IC50, Trypsin (converted)): 5690 µM; IC50 (trypsin; glyphosate as AIa, read-out: IC50, trypsin (Figure 2 legend) (converted)): 5680 µM; IC50, LDH [1]: no 50% inhibition; IC50, Red [9]: no 50% inhibition; concentration giving 50% inhibition of Red + Luc activity [3]: 0.3 g/L"
"O=[N+]([O-])NC1=NCCN1Cc1ccc(Cl)nc1 [Imidacloprid, imidacloprid]",–,–,– (No inhibitory effect of the AIa and AIf was detected in the tested concentration range.),– (No inhibitory effect of the AIa and AIf was detected in the tested concentration range.),– (No inhibitory effect of the AIa and AIf was detected in the tested concentration range.),–,0.1 to 1.0 mg/kg,"EC50, P. phosphoreum bioluminescence ([10]; active ingredient alone (AIa), luminescence after 1 min): did not produce any detectable effect; EC20 (20% quenching of bacterial bioluminescence) ([10]; imidacloprid as AIa and as AIf): 50 µg/mL"
"CCOC(=O)CC(SP(=S)(OC)OC)C(=O)OCC (stereo not shown) [Malathion, malathion]",–,–,–,–,–,–,0.05 to 1.0 mg/kg,pIC50 [6]: 2.74; pIC50 [1]: 2.97
